According to ChEMBL document CHEMBL1157646, “Melanogenesis inhibitors from the desert plant Anastatica hierochuntica in B16 melanoma cells” (Bioorg Med Chem, 2010):
The source made the active and inactive calls. The rule behind the calls is not given here.

Test system: not listed separately
Assay: Toxicity in mouse B16-4A5 cells assessed as inhibition of cell proliferation at 10 uM in presence of 1 mM theophylline after 72 hrs by WST8 dye reduction assay
Type: cell-based
Settings: not given

Row | SMILES | inhibition at 72 h, 10 µM [%]
1 | O=c1c(O)c(-c2ccc(O)cc2)oc2cc(O)cc(O)c12 [KAEMPFEROL] | 13
2 | O=c1cc(-c2ccc(O)c(O)c2)oc2cc(O)cc(O)c12 [LUTEOLIN] | 4

Test system: not listed separately
Assay: cells
Settings: Mus musculus, B16-4A5, 72 h, read-out: INH
Description: Inhibition of theophylline-stimulated melanogenesis in mouse B16-4A5 cells at 3 uM after 72 hrs

Row | SMILES | inhibition at 3 µM [%]
3 | O=c1c(O)c(-c2ccc(O)cc2)oc2cc(O)cc(O)c12 [KAEMPFEROL] | 7.9
4 | O=c1cc(-c2ccc(O)c(O)c2)oc2cc(O)cc(O)c12 [LUTEOLIN] | 13.5

Test system: not listed separately
Assay: cells
Settings: Mus musculus, B16-4A5, 72 h, read-out: INH
Remark: another data set of the same source
Description: Inhibition of theophylline-stimulated melanogenesis in mouse B16-4A5 cells at 30 uM after 72 hrs

Row | SMILES | inhibition at 30 µM [%]
5 | O=c1c(O)c(-c2ccc(O)cc2)oc2cc(O)cc(O)c12 [KAEMPFEROL] | 58.1
6 | O=c1cc(-c2ccc(O)c(O)c2)oc2cc(O)cc(O)c12 [LUTEOLIN] | 76.7

Test system: not listed separately
Assay: Toxicity in mouse B16-4A5 cells assessed as inhibition of cell proliferation in presence of 1 mM theophylline after 72 hrs by WST8 dye reduction assay
Type: cell-based
Settings: not given

Row | SMILES | IC50 at 72 h [µM]
7 | O=c1cc(-c2ccc(O)c(O)c2)oc2cc(O)cc(O)c12 [LUTEOLIN] | > 100

Test system: not listed separately
Assay: Toxicity in mouse B16-4A5 cells assessed as inhibition of cell proliferation at 1 uM in presence of 1 mM theophylline after 72 hrs by WST8 dye reduction assay
Type: cell-based
Settings: not given

Row | SMILES | inhibition at 72 h, 1 µM [%]
8 | O=c1c(O)c(-c2ccc(O)cc2)oc2cc(O)cc(O)c12 [KAEMPFEROL] | 3
9 | O=c1cc(-c2ccc(O)c(O)c2)oc2cc(O)cc(O)c12 [LUTEOLIN] | -4.8

Test system: not listed separately
Assay: cells
Settings: Mus musculus, B16-4A5, 72 h, read-out: INH
Remark: another data set of the same source
Description: Inhibition of theophylline-stimulated melanogenesis in mouse B16-4A5 cells at 10 uM after 72 hrs

Row | SMILES | inhibition at 10 µM [%]
10 | O=c1c(O)c(-c2ccc(O)cc2)oc2cc(O)cc(O)c12 [KAEMPFEROL] | 18.6
11 | O=c1cc(-c2ccc(O)c(O)c2)oc2cc(O)cc(O)c12 [LUTEOLIN] | 38.1

Molecular target: T1, Tyrosinase (Agaricus bisporus) (UniProt O42713)
T1 sequence (whole entry): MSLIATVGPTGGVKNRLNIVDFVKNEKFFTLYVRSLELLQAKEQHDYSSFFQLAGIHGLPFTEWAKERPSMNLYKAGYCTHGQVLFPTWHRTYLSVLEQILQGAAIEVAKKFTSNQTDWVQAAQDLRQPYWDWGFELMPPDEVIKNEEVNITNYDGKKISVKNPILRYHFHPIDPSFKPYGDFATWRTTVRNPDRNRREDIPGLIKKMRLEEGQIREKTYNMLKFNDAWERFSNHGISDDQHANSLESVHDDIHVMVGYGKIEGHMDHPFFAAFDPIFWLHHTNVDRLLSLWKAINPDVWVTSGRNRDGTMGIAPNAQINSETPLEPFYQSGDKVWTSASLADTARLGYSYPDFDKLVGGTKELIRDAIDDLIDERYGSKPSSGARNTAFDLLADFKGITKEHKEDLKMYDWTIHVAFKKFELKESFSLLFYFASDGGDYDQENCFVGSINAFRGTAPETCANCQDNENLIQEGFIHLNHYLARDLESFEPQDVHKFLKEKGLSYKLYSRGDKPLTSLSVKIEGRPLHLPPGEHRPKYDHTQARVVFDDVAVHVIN
Assay: Inhibition of mushroom tyrosinase at 1 uM
Settings: not given

Row | SMILES | inhibition [%]
12 | O=c1cc(-c2ccc(O)c(O)c2)oc2cc(O)cc(O)c12 [LUTEOLIN] | 6.4

Test system: not listed separately
Assay: Toxicity in mouse B16-4A5 cells assessed as inhibition of cell proliferation at 3 uM in presence of 1 mM theophylline after 72 hrs by WST8 dye reduction assay
Type: cell-based
Settings: not given

Row | SMILES | inhibition at 72 h, 3 µM [%]
13 | O=c1c(O)c(-c2ccc(O)cc2)oc2cc(O)cc(O)c12 [KAEMPFEROL] | 10.2
14 | O=c1cc(-c2ccc(O)c(O)c2)oc2cc(O)cc(O)c12 [LUTEOLIN] | -4.9

Test system: not listed separately
Assay: Toxicity in mouse B16-4A5 cells assessed as inhibition of cell proliferation at 30 uM in presence of 1 mM theophylline after 72 hrs by WST8 dye reduction assay
Type: cell-based
Settings: not given

Row | SMILES | inhibition at 72 h, 30 µM [%]
15 | O=c1c(O)c(-c2ccc(O)cc2)oc2cc(O)cc(O)c12 [KAEMPFEROL] | 16.3
16 | O=c1cc(-c2ccc(O)c(O)c2)oc2cc(O)cc(O)c12 [LUTEOLIN] | 23.4

Molecular target: T1, Tyrosinase (Agaricus bisporus)
Assay: Inhibition of mushroom tyrosinase at 3 uM
Settings: not given

Row | SMILES | inhibition [%]
17 | O=c1cc(-c2ccc(O)c(O)c2)oc2cc(O)cc(O)c12 [LUTEOLIN] | 7.1

Test system: not listed separately
Assay: cells
Settings: Mus musculus, B16-4A5, 72 h, read-out: INH
Remark: another data set of the same source
Description: Inhibition of theophylline-stimulated melanogenesis in mouse B16-4A5 cells at 1 uM after 72 hrs

Row | SMILES | inhibition at 1 µM [%]
18 | O=c1c(O)c(-c2ccc(O)cc2)oc2cc(O)cc(O)c12 [KAEMPFEROL] | -0.6
19 | O=c1cc(-c2ccc(O)c(O)c2)oc2cc(O)cc(O)c12 [LUTEOLIN] | 6.2

Molecular target: T1, Tyrosinase (Agaricus bisporus)
Assay: Inhibition of mushroom tyrosinase assessed as inhibition of melanin production from dopachrome by autoxidation at 100 uM
Settings: not given

Row | SMILES | inhibition
20 | O=c1c(O)c(-c2ccc(O)cc2)oc2cc(O)cc(O)c12 [KAEMPFEROL] | inactive
21 | O=c1cc(-c2ccc(O)c(O)c2)oc2cc(O)cc(O)c12 [LUTEOLIN] | inactive
